# Laboratory results: US20130143929A1, “FUNGICIDAL IMIDAZOLES” (EI DU PONT DE NEMOURS AND COMPANY, priority 2010, published 2013)
# Marks after values point to notes of the source that are not given here.
# What was measured:
# Format in all cases: in vivo
# [1] = test system: Puccinia recondite f. sp. tritici (the causal agent of wheat leaf rust); assay: Test A: wheat leaf rust, preventive spray on wheat seedlings, visual disease rating; conditions: for Test A rating (100 = 100% disease control, 0 = no disease control relative to the controls): wheat leaf rust, preventive spray on wheat seedlings
# In short: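 Wheat seedlings were sprayed to run-off with compound suspended in acetone/water containing 250 ppm Trem 014 (200 ppm ≈ 800 g/ha; some at 40 ppm). Puccinia recondite spores were inoculated the next day. Plants were held 24 h saturated at 20° C, then 7 days at 20° C, and disease control was rated visually on a 0–100 scale against controls.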
# [2] = test system: Septoria tritici (the causal agent of wheat leaf blotch); assay: Test B: wheat leaf blotch, preventive spray on wheat seedlings, visual disease rating; conditions: for Test B rating (100 = 100% disease control, 0 = no disease control relative to the controls): wheat leaf blotch, preventive spray on wheat seedlings
# In short: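 Wheat seedlings sprayed to run-off with compound suspension (acetone/water with 250 ppm Trem 014; 200 ppm ≈ 800 g/ha, some at 40 ppm), inoculated next day with Septoria tritici spores. 48 h saturated humidity at 24 °C, then 19 days at 20 °C; visual rating, 100 = full control.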
# [3] = test system: Botrytis cinerea (the causal agent of tomato Botrytis); assay: Test C: tomato Botrytis, preventive spray on tomato seedlings, visual disease rating; conditions: for Test C rating (100 = 100% disease control, 0 = no disease control relative to the controls): tomato Botrytis, preventive spray on tomato seedlings
# In short: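 Test suspension (acetone/water with 250 ppm Trem 014; 200 ppm equivalent to 800 g/ha) sprayed to run-off on tomato seedlings; B. cinerea spores inoculated next day. After 48 h saturated humidity at 20° C then 3 days at 24° C, disease rated visually as % control relative to untreated controls (0–100).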
# [4] = test system: Blumeria graminis f. sp. tritici (also known as Erysiphe graminis f. sp. tritici, the causal agent of wheat powdery mildew); assay: Test D: wheat powdery mildew, preventive spray on wheat seedlings, visual disease rating; conditions: for Test D rating (100 = 100% disease control, 0 = no disease control relative to the controls): wheat powdery mildew, preventive spray on wheat seedlings
# In short: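 Compound suspended in acetone/water (50/50) with 250 ppm Trem 014 and sprayed to run-off on wheat seedlings (200 ppm ≈ 800 g/ha), then inoculated next day with spore dust. Disease rated visually after 8 days at 20 °C as % control relative to untreated plants (0-100).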
# [5] = no asterisk (standard test suspension concentration, not 40 ppm)
# [6] = asterisk: 40 ppm test suspension, 100 = 100% disease control, 0 = no control
# [7] = asterisk: 40 ppm test suspension
Compound,"Test A rating (100 = 100% disease control, 0 = no disease control relative to the controls) [1, 5]","Test B rating (100 = 100% disease control, 0 = no disease control relative to the controls) [2, 5]","Test C rating (100 = 100% disease control, 0 = no disease control relative to the controls) [3, 5]","Test D rating (100 = 100% disease control, 0 = no disease control relative to the controls) [4, 5]","Test A rating (100 = 100% disease control, 0 = no disease control relative to the controls) [1, 7]","Test B rating (100 = 100% disease control, 0 = no disease control relative to the controls) [2, 7]","Test C rating (100 = 100% disease control, 0 = no disease control relative to the controls) [3, 7]","Test D rating (100 = 100% disease control, 0 = no disease control relative to the controls) [4, 7]",other results
"OC(c1ccc(F)cc1F)c1c(Cl)nc(Cl)n1-c1ccc(Cl)cc1Cl (single isomer, unassigned) [compound 22]",100%,100%,98%,0%,,,,,
COc1cc(F)c(-n2c(C)nc(Br)c2C(O)c2ccc(F)cc2F)c(F)c1 (stereo not shown) [compound 412],,,,,,,,,"Test A rating (% disease control, wheat leaf rust) [1, 6]: 100* %; Test B rating (% disease control, wheat leaf blotch) [2, 6]: 100* %; Test C rating (% disease control, tomato Botrytis) [3, 6]: 0* %; Test D rating (% disease control, wheat powdery mildew) [4, 6]: 0* %"
Cc1nc(Br)n(-c2c(F)cc(Cl)cc2F)c1C(O)c1ccc(F)cc1F (racemic) [compound 299],,,,,100* %,100* %,100* %,87* %,
"Cc1nc(Br)c(C(O)c2ccc(F)cc2Cl)n1-c1c(F)cc(F)cc1F (stereo not drawn) [Compound 168, 4-bromo-α-(2-chloro-4-fluorophenyl)-2-methyl-1-(2,4,6-trifluorophenyl)-1H-imidazole-5-methanol]",,,,,100* %,100* %,99* %,56* %,
COc1cc(F)c(C(O)c2c(Br)nc(C)n2-c2ccc(F)cc2F)c(F)c1 (racemic) [compound 258],100%,95%,79%,0%,,,,,
Cc1nc(Br)c(C(O)c2ccc(F)cc2Cl)n1-c1ccc(F)cc1Br (stereo not shown) [compound 190],100%,100%,99%,0%,,,,,
COc1ccc(C(O)c2cnc(CCl)n2-c2c(F)cc(F)cc2Br)c(Cl)c1 (stereo not shown) [compound 352],100%,100%,99%,95%,,,,,
COc1ccc(C(O)c2c(Br)nc(C)n2-c2ccc(F)cc2F)c(F)c1 (racemic) [compound 284],,,,,100* %,100* %,41* %,0* %,
Cc1nc(Br)c(C(O)c2ccc(F)cc2Cl)n1-c1ccc(F)cc1F (racemic) [compound 240],,,,,99* %,100* %,99* %,89* %,
Cc1cc(F)ccc1C(O)c1c(Cl)nc(Cl)n1-c1c(F)cc(F)cc1Cl (racemic) [compound 14],100%,,99%,100%,,100* %,,,
